biological target: T1, recombinant human 5-HT5A receptor (Homo sapiens, UniProt P47898); assay: [3H]LSD radioligand binding assay, membranes of HEK-EBNA cells transiently expressing 5-HT5A receptors; settings: [3H]LSD approx. 1 nM, SPA beads, 120 min at room temperature; Ki from IC50 by the Cheng-Prussoff equation
T1 construct: expressed in transfected cells; host or cells: HEK-EBNA (Human Embryonic Kidney-EBNA) cells, transient cDNA expression; membranes
Description: A [^3H]LSD radioligand binding assay was used to determine the affinity of the compounds for the recombinant human 5-HT5A receptor, in membranes from transiently (cDNA) expressed 5-HT5A receptors in Human Embryonic Kidney-EBNA (HEK-EBNA) cells. Assay buffer consisted of Tris (50 mM) buffer containing 1 mM EGTA, 10 mM MgCl2 (pH 7.4) and 10 μM pargyline. The binding assay was carried out in 96-well-plates in the presence of [^3H]LSD (approximately 1 nM), approximately 2 μg/well of membrane protein, and 0.5 mg of Ysi-poly-1-lysine SPA beads in a final volume of 200 μl of buffer. Non-specific binding was defined using methiothepin 2 μM. Compounds were tested at 10 concentrations. All assays were conducted in duplicate and repeated at least two times. Assay plates were incubated for 120 min at room temperature before centrifugation. Bound ligand was determined using a Packard Topcount scintillation counter. IC50 values were calculated using a non-linear curve fitting program and Ki values calculated using the Cheng-Prussoff equation.

T1 sequence (P47898 whole entry): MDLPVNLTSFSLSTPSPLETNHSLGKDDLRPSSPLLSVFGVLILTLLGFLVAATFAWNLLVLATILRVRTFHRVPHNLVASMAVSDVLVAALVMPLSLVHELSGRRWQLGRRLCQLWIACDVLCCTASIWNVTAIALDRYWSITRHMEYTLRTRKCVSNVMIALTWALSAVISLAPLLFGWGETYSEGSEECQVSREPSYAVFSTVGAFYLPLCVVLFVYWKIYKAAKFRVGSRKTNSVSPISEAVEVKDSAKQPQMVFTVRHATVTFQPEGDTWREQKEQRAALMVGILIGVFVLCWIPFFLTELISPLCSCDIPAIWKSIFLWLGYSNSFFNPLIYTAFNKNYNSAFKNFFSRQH

SMILES | Ki [µM]
CS(=O)(=O)Nc1cccc2c1COC(N[C@@H]1CCc3ccccc31)=N2 [Example 10, N-[2-((R)-Indan-1-ylamino)-4H-benzo[d][1,3]oxazin-5-yl]-methanesulfonamide] | 0.005
Nc1cccc2c1COC(N[C@@H]1CCc3ccccc31)=N2 [Example 3, (R)—N^2-Indan-1-yl-4H-benzo[d][1,3]oxazine-2,5-diamine] | 0.003
Brc1cccc2c1COC(N[C@@H]1CCc3ccccc31)=N2 [Example 9, (5-Bromo-4H-benzo[d][1,3]oxazin-2-yl)-(R)-indan-1-yl-amine] | 0.106
O=C(Cc1ccc(Cl)cc1)Nc1cccc2c1COC(N[C@@H]1CCc3ccccc31)=N2 [Example 5, 2-(4-Chloro-phenyl)-N-[2-((R)-indan-1-ylamino)-4H-benzo[d][1,3]oxazin-5-yl]-acetamide] | 0.131
c1ccc2c(c1)CC[C@H]2NC1=Nc2cccc(C3CC3)c2CO1 [Example 12, (5-Cyclopropyl-4H-benzo[d][1,3]oxazin-2-yl)-(R)-indan-1-yl-amine] | 0.013
Clc1cccc2c1COC(N[C@@H]1CCc3ccccc31)=N2 [Example 1, (5-Chloro-4H-benzo[d][1,3]oxazin-2-yl)-(R)-indan-1-yl-amine] | 0.057
N#Cc1cccc2c1COC(N[C@@H]1CCc3ccccc31)=N2 [Example 11, 2-((R)-Indan-1-ylamino)-4H-benzo[d][1,3]oxazine-5-carbonitrile] | 0.118
COc1cccc2c1C(NC1=Nc3cccc(N)c3CO1)CO2 (stereo not drawn) [Example 4, N^2-(4-Methoxy-2,3-dihydro-benzofuran-3-yl)-4H-benzo[d][1,3]oxazine-2,5-diamine] | 0.027
O=S(=O)(Nc1cccc2c1COC(N[C@@H]1CCc3ccccc31)=N2)c1cc(F)cc(F)c1 [Example 6, 3,5-Difluoro-N-[2-((R)-indan-1-ylamino)-4H-benzo[d][1,3]oxazin-5-yl]-benzenesulfonamide] | 0.002
COc1cccc2c1C(NC1=Nc3cccc(NS(=O)(=O)c4cc(F)cc(F)c4)c3CO1)CO2 (stereo not drawn) [Example 7, 3,5-Difluoro-N-[2-(4-methoxy-2,3-dihydro-benzofuran-3-ylamino)-4H-benzo[d][1,3]oxazin-5-yl]-benzenesulfonamide] | 0.01
Fc1ccc(-c2cccc3c2COC(N[C@@H]2CCc4ccccc42)=N3)cc1 [Example 13, [5-(4-Fluoro-phenyl)-4H-benzo[d][1,3]oxazin-2-yl]-(R)-indan-1-yl-amine] | 0.078
O=[N+]([O-])c1cccc2c1COC(N[C@@H]1CCc3ccccc31)=N2 [Example 2, (R)-Indan-1-yl-(5-nitro-4H-benzo[d][1,3]oxazin-2-yl)-amine] | 0.169
O=S(=O)(Nc1cccc2c1COC(N[C@@H]1CCc3ccccc31)=N2)C1CC1 [Example 8, Cyclopropanesulfonic acid [2-((R)-indan-1-ylamino)-4H-benzo[d][1,3]oxazin-5-yl]-amide] | 0.002
Clc1ccc(Nc2cccc3c2COC(N[C@@H]2CCc4ccccc42)=N3)cc1 [Example 15, N^5-(4-Chloro-phenyl)-N^2—(R)-indan-1-yl-4H-benzo[d][1,3]oxazine-2,5-diamine] | 0.002
Fc1ccc(Nc2cccc3c2COC(N[C@@H]2CCc4ccccc42)=N3)cc1 [Example 14, N^5-(4-Fluoro-phenyl)-N^2—(R)-indan-1-yl-4H-benzo[d][1,3]oxazine-2,5-diamine] | 0.003

— patent publication US8044047B2, “5-substituted benzoxazines” (Hoffman-La Roche Inc., priority 2008, dated 2011)
